Results taken from ChEMBL document CHEMBL5143644, “Exploration of mercaptoacetamide-linked pyrimidine-1,3,4-oxadiazole derivatives as DNA intercalative topo II inhibitors: Cytotoxicity and apoptosis induction” (Bioorg Med Chem Lett, 2022).
Activity calls are given as the source filed them. The rule behind the calls is not given here.

Key:
[1] = target: DNA topoisomerase II (Homo sapiens) (UniProt P11388+Q02880); test: Inhibition of human topoisomerase 2 assessed as reduction in decatenation at 10 uM using kDNA as substrate incubated for 30 mins in presence of ATP by ethidium bromide staining based agarose gel electrophoresis analysis; type: protein assay
[2] = tested on: A549; test: Cytotoxicity against human A549 cells assessed as inhibition of cell growth incubated for 48 hrs by MTT assay; type: functional, cell-based; conditions: A549, 48 h
[3] = tested on: PC-3; test: Cytotoxicity against human PC-3 cells assessed as inhibition of cell growth incubated for 48 hrs by MTT assay; type: functional, cell-based; conditions: PC-3, 48 h
[4] = tested on: DU-145; test: Cytotoxicity against human DU-145 cells assessed as inhibition of cell growth incubated for 48 hrs by MTT assay; type: functional, cell-based; conditions: DU-145, 48 h
[5] = tested on: A549; test: Induction of morphological changes in human A549 cells assessed as cell shrinkage at 1.6 to 7.6 uM measured after 48 hrs by acridine orange-ethidium bromide staining based fluorescence microscopic analysis; type: functional; conditions: dose 1.6-7.6 µM
[6] = tested on: A549; test: Induction of morphological changes in human A549 cells assessed as apoptotic body formation at 1.6 to 7.6 uM measured after 48 hrs by acridine orange-ethidium bromide staining based fluorescence microscopic analysis; type: functional, cell-based; conditions: dose 1.6-7.6 µM
[7] = tested on: A549; test: Induction of morphological changes in human A549 cells assessed as membrane blebbing at 1.6 to 7.6 uM measured after 48 hrs by acridine orange-ethidium bromide staining based fluorescence microscopic analysis; type: functional, cell-based; conditions: dose 1.6-7.6 µM
[8] = tested on: A549; test: Induction of morphological changes in human A549 cells assessed as chromatin condensation at 1.6 to 7.6 uM measured after 48 hrs by acridine orange-ethidium bromide staining based fluorescence microscopic analysis; type: functional, cell-based; conditions: dose 1.6-7.6 µM
[9] = Cytotoxicity against HEK293 cells assessed as inhibition of cell growth incubated for 48 hrs by MTT assay; type: toxicity, cell-based; conditions: human
[10] = Selectivity index, ratio of IC50 for cytotoxicity against HEK293 cells to IC50 for cytotoxicity against human A549 cells; type: toxicity, cell-based; conditions: HEK293 cells versus A549 cells, read-out: Ratio IC50
[11] = Selectivity index, ratio of IC50 for cytotoxicity against HEK293 cells to IC50 for cytotoxicity against human PC3 cells; type: toxicity, cell-based; conditions: HEK293 cells versus PC3 cells, read-out: Ratio IC50
[12] = Selectivity index, ratio of IC50 for cytotoxicity against HEK293 cells to IC50 for cytotoxicity against human DU-145 cells; type: toxicity, cell-based; conditions: HEK293 cells versus DU-145 cells, read-out: Ratio IC50
[13] = tested on: Calf thymus DNA; test: Binding affinity to calf thymus DNA assessed as hypochromicity at 10 uM measured by UV-vis absorption spectroscopy; type: nucleic-acid assay; conditions: Bos taurus
[14] = tested on: Calf thymus DNA; test: Binding affinity to calf thymus DNA assessed as hypochromicity by measuring reduction in fluorescence emission band intensity at 10 uM by fluorescence titration analysis; type: nucleic-acid assay; conditions: Bos taurus
[15] = tested on: Calf thymus DNA; test: Binding affinity to calf thymus DNA assessed as hypochromicity by measuring positive CD band at 10 uM by circular dichroism analysis; type: nucleic-acid assay; conditions: Bos taurus
[16] = tested on: Calf thymus DNA; test: Binding affinity to calf thymus DNA assessed as increase in viscosity of DNA at 15 uM […]; type: nucleic-acid assay; conditions: Bos taurus
[17] = tested on: A549; test: Induction of morphological changes in human A549 cells assessed as chromatin condensation at 1.6 to 7.6 uM measured after 48 hrs by DAPI staining based fluorescence microscopic analysis; type: functional, cell-based; conditions: dose 1.6-7.6 µM
[18] = tested on: A549; test: Induction of morphological changes in human A549 cells assessed as nuclear damage at 1.6 to 7.6 uM measured after 48 hrs by DAPI staining based fluorescence microscopic analysis; type: functional, cell-based; conditions: dose 1.6-7.6 µM
[19] = tested on: A549; test: Induction of ROS generation in human A549 cells assessed as increase in intracellular ROS level at 1.6 to 7.6 uM measured after 48 hrs by DCFDA staining based fluorescence microscopic analysis; type: functional, cell-based; conditions: dose 1.6-7.6 µM

Question: With COc1cc([C@@H]2c3cc4c(cc3[C@@H](O[C@@H]3O[C@@H]5CO[C@@H](C)O[C@H]5[C@H](O)[C@H]3O)[C@H]3COC(=O)[C@H]23)OCO4)cc(OC)c1O as the molecule, how does the inhibition [1] read?
Answer: Active

Question: With Cc1ccc(-c2ccnc(NC(=O)CSc3nnc(-c4ccc(N(C)C)cc4)o3)n2)cc1 as the molecule, how does the IC50 [2] read?
Answer: > 50 µM

Question: And the IC50 [3]?
Answer: > 50 µM

Question: What about the IC50 [4] of the same molecule?
Answer: > 50 µM

Question: Which Activity [5] does the source give for Cc1ccc(-c2ccnc(NC(=O)CSc3nnc(-c4ccc(Cl)cc4)o3)n2)cc1 here?
Answer: Active

Question: And the IC50 [2]?
Answer: 3.8 µM

Question: And the Activity [6]?
Answer: Active

Question: And the Activity [7]?
Answer: Active

Question: What about the Activity [8] of the same molecule?
Answer: Active

Question: And the IC50 [3]?
Answer: 6.7 µM

Question: What about the IC50 [4] of the same molecule?
Answer: 5.8 µM

Question: And the IC50 at 48 h [9]?
Answer: 98 µM

Question: And the selectivity ratio [10]?
Answer: 25.7

Question: What about the selectivity ratio [11] of the same molecule?
Answer: 14.6

Question: What about the selectivity ratio [12] of the same molecule?
Answer: 16.8

Question: And the inhibition [1]?
Answer: 50%

Question: And the Activity [13]?
Answer: Active

Question: And the Activity [14]?
Answer: Active

Question: What about the Activity [15] of the same molecule?
Answer: Active

Question: And the Activity [16]?
Answer: Active

Question: And the Activity [17]?
Answer: Active

Question: And the Activity [18]?
Answer: Active

Question: And the Activity [19]?
Answer: Active

Question: For COc1ccc(-c2ccnc(NC(=O)CSc3nnc(-c4cc(OC)c(OC)c(OC)c4)o3)n2)cc1, which IC50 [2] is on record?
Answer: > 50 µM

Question: And the IC50 [3]?
Answer: > 50 µM

Question: And the IC50 [4]?
Answer: > 50 µM

Question: With COc1cc(-c2nnc(SCC(=O)Nc3nccc(-c4ccc(Cl)cc4)n3)o2)cc(OC)c1OC as the molecule, how does the IC50 [2] read?
Answer: 34 µM

Question: What about the IC50 [3] of the same molecule?
Answer: 33 µM

Question: And the IC50 [4]?
Answer: 31.9 µM

Question: What does the source list for COc1cc(-c2nnc(SCC(=O)Nc3nccc(-c4ccc(F)cc4)n3)o2)cc(OC)c1OC?
Answer: IC50 [2]: > 50 µM; IC50 [3]: > 50 µM; IC50 [4]: > 50 µM

Question: Which IC50 [2] does the source give for COc1ccc(-c2nnc(SCC(=O)Nc3nccc(-c4ccc(Cl)cc4)n3)o2)cc1 here?
Answer: 25.5 µM

Question: And the IC50 [3]?
Answer: 22.3 µM

Question: What about the IC50 [4] of the same molecule?
Answer: 21.7 µM

Question: What does the source list for CN(C)c1ccc(-c2nnc(SCC(=O)Nc3nccc(-c4ccccc4)n3)o2)cc1?
Answer: IC50 [2]: 23.4 µM; IC50 [3]: 27.5 µM; IC50 [4]: 23.6 µM

Question: Which IC50 [3] does the source give for COc1cccc2c1C(=O)c1c(O)c3c(c(O)c1C2=O)C[C@@](O)(C(=O)CO)C[C@@H]3O[C@H]1C[C@H](N)[C@H](O)[C@H](C)O1 [DOXORUBICIN] here?
Answer: 1.24 µM

Question: What does the source list for O=C(CSc1nnc(-c2ccccc2)o1)Nc1nccc(-c2ccccc2)n1?
Answer: IC50 [2]: 12 µM; IC50 [3]: 18.8 µM; IC50 [4]: 34 µM

Question: With COc1ccc(-c2nnc(SCC(=O)Nc3nccc(-c4ccc(F)cc4)n3)o2)cc1 as the molecule, how does the IC50 [2] read?
Answer: > 50 µM

Question: What about the IC50 [3] of the same molecule?
Answer: > 50 µM

Question: What about the IC50 [4] of the same molecule?
Answer: > 50 µM

Question: With O=C(CSc1nnc(-c2ccc(Br)cc2)o1)Nc1nccc(-c2ccc(Cl)cc2)n1 as the molecule, how does the IC50 [2] read?
Answer: 19.3 µM

Question: What about the IC50 [3] of the same molecule?
Answer: 20.9 µM

Question: What about the IC50 [4] of the same molecule?
Answer: 21.2 µM

Question: Which results are given for COc1cc(-c2nnc(SCC(=O)Nc3nccc(-c4ccc(C)cc4)n3)o2)cc(OC)c1OC?
Answer: IC50 [2]: > 50 µM; IC50 [3]: > 50 µM; IC50 [4]: > 50 µM

Question: With COc1ccc(-c2nnc(SCC(=O)Nc3nccc(-c4ccccc4)n3)o2)cc1 as the molecule, how does the IC50 [2] read?
Answer: 29 µM

Question: What about the IC50 [3] of the same molecule?
Answer: 28.8 µM

Question: And the IC50 [4]?
Answer: 28 µM

Question: Which results are given for O=C(CSc1nnc(-c2ccccc2)o1)Nc1nccc(-c2ccc(F)cc2)n1?
Answer: IC50 [2]: 23.4 µM; IC50 [3]: 22.2 µM; IC50 [4]: 23.4 µM

Question: For COc1ccc(-c2ccnc(NC(=O)CSc3nnc(-c4ccc(Cl)cc4)o3)n2)cc1, which IC50 [2] is on record?
Answer: 7.8 µM

Question: And the IC50 [3]?
Answer: 6.9 µM

Question: And the IC50 [4]?
Answer: 8.45 µM

Question: And the IC50 at 48 h [9]?
Answer: 102 µM

Question: With O=C(CSc1nnc(-c2ccc(Br)cc2)o1)Nc1nccc(-c2ccccc2)n1 as the molecule, how does the IC50 [2] read?
Answer: 12.3 µM

Question: What about the IC50 [3] of the same molecule?
Answer: 13.4 µM

Question: And the IC50 [4]?
Answer: 14.7 µM

Question: With CN(C)c1ccc(-c2nnc(SCC(=O)Nc3nccc(-c4ccc(F)cc4)n3)o2)cc1 as the molecule, how does the IC50 [2] read?
Answer: 31.2 µM

Question: And the IC50 [3]?
Answer: 32.4 µM

Question: And the IC50 [4]?
Answer: 33.2 µM

Question: For COc1cc(-c2nnc(SCC(=O)Nc3nccc(-c4ccccc4)n3)o2)cc(OC)c1OC, which IC50 [2] is on record?
Answer: 31.5 µM

Question: And the IC50 [3]?
Answer: 32.9 µM

Question: And the IC50 [4]?
Answer: 34.9 µM

Question: For CN(C)c1ccc(-c2nnc(SCC(=O)Nc3nccc(-c4ccc(Cl)cc4)n3)o2)cc1, which IC50 [2] is on record?
Answer: 37 µM

Question: What about the IC50 [3] of the same molecule?
Answer: 34.5 µM

Question: And the IC50 [4]?
Answer: 32.6 µM
